Active and inactive are the calls of the source.
Assays:
[1] = biological target: T1, Short transient receptor potential channel 4 (Mus musculus, UniProt Q9QUQ5); test: potentiation of DAMGO-evoked TRPC4 calcium signal – cell-based, HEK293 TRPC4/mu-opioid, Fluo-4 calcium, EC20 DAMGO, dose response (AID 434941); assay type: functional
T1 sequence (Q9QUQ5 whole entry): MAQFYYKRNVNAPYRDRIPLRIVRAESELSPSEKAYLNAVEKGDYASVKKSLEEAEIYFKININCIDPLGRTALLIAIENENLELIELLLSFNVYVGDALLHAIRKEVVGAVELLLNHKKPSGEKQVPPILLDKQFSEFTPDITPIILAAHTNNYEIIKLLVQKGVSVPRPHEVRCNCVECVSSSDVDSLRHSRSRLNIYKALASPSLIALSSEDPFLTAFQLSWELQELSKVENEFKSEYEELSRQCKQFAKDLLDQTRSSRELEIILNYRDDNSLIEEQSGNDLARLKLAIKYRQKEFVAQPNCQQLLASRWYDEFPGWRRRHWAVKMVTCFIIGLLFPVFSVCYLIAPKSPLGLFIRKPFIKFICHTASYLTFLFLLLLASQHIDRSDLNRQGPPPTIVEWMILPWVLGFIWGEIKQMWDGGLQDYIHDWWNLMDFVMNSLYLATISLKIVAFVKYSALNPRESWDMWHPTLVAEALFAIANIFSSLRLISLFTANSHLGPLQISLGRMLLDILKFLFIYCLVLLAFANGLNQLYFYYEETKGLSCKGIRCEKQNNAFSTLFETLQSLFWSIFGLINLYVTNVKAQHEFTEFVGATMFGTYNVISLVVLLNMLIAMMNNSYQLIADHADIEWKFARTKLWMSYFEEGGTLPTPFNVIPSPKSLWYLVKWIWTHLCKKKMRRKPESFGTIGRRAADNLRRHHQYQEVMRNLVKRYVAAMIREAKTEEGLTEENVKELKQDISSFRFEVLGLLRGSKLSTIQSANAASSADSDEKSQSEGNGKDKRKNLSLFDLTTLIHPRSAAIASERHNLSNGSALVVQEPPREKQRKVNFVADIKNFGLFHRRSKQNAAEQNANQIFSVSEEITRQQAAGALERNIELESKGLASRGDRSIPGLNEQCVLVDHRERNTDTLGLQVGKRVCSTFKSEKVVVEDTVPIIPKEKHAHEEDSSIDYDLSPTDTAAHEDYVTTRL

[2] = biological target: T2, Kappa-type opioid receptor (Homo sapiens, UniProt P41145); test: SAR analysis of small molecule antagonists of the kappa opioid receptor via a luminescent beta-arrestin assay - Set 3. [Related pubchem assays (depositor defined):AID1777, AID1778, AID1785, AID1786, AID1966, AID2133, AID2136, AID2285, AID2495]; assay type: functional
Mu-type opioid receptor = Mu-type opioid receptor (Homo sapiens, UniProt P35372); test: SAR Analysis of Antagonists of the MOR Receptor using an Image-Based Assay - Set 3. [Related pubchem assays (depositor defined):AID1777, AID1785, AID1786, AID1966, AID2133, AID2136, AID2284, AID2285, AID2420]; assay type: functional
[3] = biological target: T2, Kappa-type opioid receptor; test: SAR analysis of Antagonists of the Kappa Opioid Receptor (KOR) using an Image-Based Assay - Set 3. [Related pubchem assays (depositor defined):AID1777, AID1785]; assay type: functional
[4] = biological target: T2, Kappa-type opioid receptor; test: SAR analysis of Antagonists of the Kappa Opioid Receptor (KOR) using an Image-Based Assay - Set 4. [Related pubchem assays (depositor defined):AID1777, AID1785]; assay type: functional
[5] = biological target: T2, Kappa-type opioid receptor; test: SAR analysis of small molecule antagonists of the kappa opioid receptor via a luminescent beta-arrestin assay - Set 6. [Related pubchem assays (depositor defined):AID1777, AID1778, AID1785, AID1786, AID1966, AID2133, AID2136, AID2285]; assay type: functional
[6] = biological target: Delta-type opioid receptor (Homo sapiens, UniProt P41143); test: SAR Analysis of Antagonists of the DOR Receptor using an Image-Based Assay - Set 3. [Related pubchem assays (depositor defined):AID1777, AID1785]; assay type: functional;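 further: U2OS cells expressing DOR1 and beta-arrestin GFP stimulated with 100 nM SNC80; imaging of GFP-tagged beta-arrestin moving into spots after receptor activation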
[7] = Luminescence Cell-Based Dose Confirmation HTS to Identify Activators of 5'UTR Stem-Loop Driven Alpha-Synuclein mRNA Translation in H4 Neuroglioblastoma Cells. [Related pubchem assays: 1829 (Project Summary), 1814 (Primary HTS)]; assay type: functional
[8] = biological target: E3 ubiquitin-protein ligase Mdm2/Protein Mdm4 (Homo sapiens, UniProt O15151+Q00987); test: disruption of Mdm2/MdmX protein binding – luminescence detection, dose response (AID 504593); assay type: functional
[9] = Luminescence Cell-Based Dose Response HTS to Identify Activators of Luciferase Translation or Activity in H4 […] Cells. [Related pubchem assays: 1829 (Project Summary), 1814 (Primary HTS)]; assay type: functional
H4 = test: Luminescence Cell-Based Dose Response HTS to Identify Activators of 5'UTR Stem-Loop Driven Prion Protein mRNA Translation in H4 Neuroglioblastoma Cells. [Related pubchem assays: 1829 (Project Summary), 1814 (Primary HTS)]; assay type: functional; conditions: Homo sapiens
[10] = biological target: Glyceraldehyde-3-phosphate dehydrogenase (Homo sapiens, UniProt P04406)
[11] = biological target: T3, Alkaline phosphatase, tissue-nonspecific isozyme (Homo sapiens, UniProt P05186); test: potency against alkaline phosphatase TNAP – biochemical, luminescent, dose response, SAR follow-up (AID 1056)
T3 sequence (P05186 whole entry): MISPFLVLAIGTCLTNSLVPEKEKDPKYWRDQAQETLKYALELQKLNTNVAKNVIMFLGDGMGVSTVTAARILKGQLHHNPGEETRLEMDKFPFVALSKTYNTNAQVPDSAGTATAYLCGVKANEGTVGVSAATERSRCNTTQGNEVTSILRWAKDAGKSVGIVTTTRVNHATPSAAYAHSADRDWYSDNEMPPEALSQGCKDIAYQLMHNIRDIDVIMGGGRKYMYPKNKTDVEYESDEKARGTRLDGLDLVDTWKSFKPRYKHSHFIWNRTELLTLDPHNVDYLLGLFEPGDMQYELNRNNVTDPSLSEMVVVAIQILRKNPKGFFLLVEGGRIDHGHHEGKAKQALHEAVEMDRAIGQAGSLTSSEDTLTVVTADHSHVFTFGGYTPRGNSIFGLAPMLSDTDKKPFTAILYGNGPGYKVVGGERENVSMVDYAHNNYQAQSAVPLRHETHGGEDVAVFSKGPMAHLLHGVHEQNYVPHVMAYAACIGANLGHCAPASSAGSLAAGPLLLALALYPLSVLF

[12] = biological target: Alkaline phosphatase, placental type (Homo sapiens, UniProt P05187); test: human placental alkaline phosphatase inhibition – biochemical, luminescence, confirmation (AID 1512); assay type: functional
Hexokinase = Hexokinase (Trypanosoma brucei, UniProt Q38C41); test: Confirmation assay for inhibitors of Trypanosoma brucei hexokinase 1-Analogue-first series. [Related pubchem assays (depositor defined):AID1430, AID1632, AID2516, AID2560, AID2579, AID2600, AID449725, AID492951]; assay type: functional
Integrin alpha-4 = Integrin alpha-4 (Homo sapiens, UniProt P13612); test: allosteric modulators of alpha4 integrin VLA-4 – cell-based, LIBS antibody binding, flow cytometry, SAR follow-up (AID 488791); assay type: functional
Phospholipase A2 = Phospholipase A2 (Homo sapiens, UniProt P04054); assay type: functional;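 further: confirmatory dose-response counterscreen on phospholipase A2, testing hits that came from an ultra-high-throughput screen for ATG4B inhibitors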
[13] = biological target: Dual specificity tyrosine-phosphorylation-regulated kinase 1A (Rattus norvegicus, UniProt Q63470); assay type: biochemical, Homo sapiens
[14] = viability loss in THP-1 monocytes – THP-1 cells, cytotoxicity control for Vif-APOBEC3G degradation inhibitor project, dose response (AID 1117359); assay type: functional; conditions: THP-1
Troponin, cardiac muscle = Troponin, cardiac muscle (Homo sapiens, UniProt P19429+P45379+P63316); test: compounds desensitizing RTF to calcium – biochemical, fluorescence, cardiac regulated thin filaments, triplicate IC50, dose response (AID 504742); assay type: protein-complex assay
Nonstructural protein 1 = Nonstructural protein 1 (Influenza A virus, UniProt Q194T2); assay type: functional, Influenza A virus (A/California/07/2009(H1N1))
[15] = biological target: Glutathione-S-transferase (Schistosoma japonicum, UniProt Q26513); test: GST-antibody interaction or FRET quenching – biochemical, TR-FRET, artefact control for Vif-APOBEC3G degradation inhibitor project, dose response (AID 1117362); assay type: functional
[16] = viability loss in HeLa cells – cytotoxicity control for MgcRacGAP inhibitor project, dose response (AID 624300); assay type: functional
Cysteine protease ATG4B = biological target: T4, Cysteine protease ATG4B (Homo sapiens, UniProt Q9Y4P1); assay type: functional;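 further: Fluorescence-based dose-response confirmation assay measuring inhibition of ATG4B activity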
T4 sequence (Q9Y4P1 whole entry): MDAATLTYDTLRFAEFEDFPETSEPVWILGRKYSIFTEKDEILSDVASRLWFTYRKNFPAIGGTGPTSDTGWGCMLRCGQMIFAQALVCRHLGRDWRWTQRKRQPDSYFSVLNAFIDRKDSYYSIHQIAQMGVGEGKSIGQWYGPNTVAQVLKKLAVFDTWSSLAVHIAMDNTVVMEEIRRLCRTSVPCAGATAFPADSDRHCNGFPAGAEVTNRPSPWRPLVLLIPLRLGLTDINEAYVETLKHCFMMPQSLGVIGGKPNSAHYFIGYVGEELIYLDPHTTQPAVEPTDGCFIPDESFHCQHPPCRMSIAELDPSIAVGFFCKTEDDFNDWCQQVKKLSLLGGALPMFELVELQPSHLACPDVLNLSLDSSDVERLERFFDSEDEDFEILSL

[17] = biological target: T5, DNA repair protein RAD52 homolog (Homo sapiens, UniProt P43351); assay type: functional, biochemical
T5 sequence (P43351 whole entry): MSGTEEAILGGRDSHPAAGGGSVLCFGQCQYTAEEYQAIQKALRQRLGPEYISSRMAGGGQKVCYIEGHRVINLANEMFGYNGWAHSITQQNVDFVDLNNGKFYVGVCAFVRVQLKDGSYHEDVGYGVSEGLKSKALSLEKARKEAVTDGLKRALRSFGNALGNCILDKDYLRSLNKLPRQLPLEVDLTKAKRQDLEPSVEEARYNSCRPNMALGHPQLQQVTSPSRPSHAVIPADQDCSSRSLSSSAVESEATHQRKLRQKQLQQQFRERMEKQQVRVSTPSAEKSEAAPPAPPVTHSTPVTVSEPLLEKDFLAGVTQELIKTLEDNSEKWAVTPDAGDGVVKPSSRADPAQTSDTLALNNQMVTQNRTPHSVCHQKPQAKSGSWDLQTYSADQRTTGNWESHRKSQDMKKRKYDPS

[18] = biological target: T6, Rac GTPase-activating protein 1 (Homo sapiens, UniProt Q9H0H5); test: blockers of MgcRacGAP-driven Rac1 GTP hydrolysis – biochemical, ADP Hunter fluorescence, primary and confirmatory, confirmation (AID 624330); assay type: functional
T6 sequence (Q9H0H5 whole entry): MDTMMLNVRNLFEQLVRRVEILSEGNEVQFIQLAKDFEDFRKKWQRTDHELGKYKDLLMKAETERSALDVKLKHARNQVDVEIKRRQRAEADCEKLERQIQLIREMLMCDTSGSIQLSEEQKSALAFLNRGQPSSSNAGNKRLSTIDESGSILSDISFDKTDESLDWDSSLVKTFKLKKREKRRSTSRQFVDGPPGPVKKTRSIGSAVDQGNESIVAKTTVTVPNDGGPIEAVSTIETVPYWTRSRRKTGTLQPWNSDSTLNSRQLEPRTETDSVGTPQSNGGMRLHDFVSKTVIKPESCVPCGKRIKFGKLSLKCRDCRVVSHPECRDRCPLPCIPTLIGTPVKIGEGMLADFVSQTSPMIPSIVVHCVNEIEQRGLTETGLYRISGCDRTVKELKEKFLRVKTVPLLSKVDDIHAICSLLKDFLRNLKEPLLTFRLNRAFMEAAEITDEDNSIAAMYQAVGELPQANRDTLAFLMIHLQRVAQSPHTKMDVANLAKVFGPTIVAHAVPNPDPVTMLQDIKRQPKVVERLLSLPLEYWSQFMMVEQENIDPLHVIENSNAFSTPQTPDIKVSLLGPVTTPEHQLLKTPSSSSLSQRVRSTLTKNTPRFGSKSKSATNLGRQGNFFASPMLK

T2 sequence (P41145 whole entry): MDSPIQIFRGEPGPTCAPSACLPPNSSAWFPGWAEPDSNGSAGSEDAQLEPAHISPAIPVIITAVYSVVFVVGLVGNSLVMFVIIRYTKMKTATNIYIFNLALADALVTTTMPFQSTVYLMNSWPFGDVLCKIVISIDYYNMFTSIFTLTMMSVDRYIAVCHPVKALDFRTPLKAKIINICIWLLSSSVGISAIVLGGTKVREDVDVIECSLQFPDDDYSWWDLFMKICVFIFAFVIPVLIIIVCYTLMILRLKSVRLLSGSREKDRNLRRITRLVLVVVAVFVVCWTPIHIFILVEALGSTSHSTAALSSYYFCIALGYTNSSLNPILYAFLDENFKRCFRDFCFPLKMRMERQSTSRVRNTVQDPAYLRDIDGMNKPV
Sequence of Glutathione-S-transferase (Q26513 whole entry): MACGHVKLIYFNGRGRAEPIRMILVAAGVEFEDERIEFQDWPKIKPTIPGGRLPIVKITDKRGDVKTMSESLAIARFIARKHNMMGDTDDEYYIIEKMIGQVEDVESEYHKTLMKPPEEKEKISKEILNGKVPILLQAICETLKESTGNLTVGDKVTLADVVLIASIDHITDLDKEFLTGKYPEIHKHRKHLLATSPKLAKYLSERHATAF
Sequence of Alkaline phosphatase, placental type (P05187 whole entry): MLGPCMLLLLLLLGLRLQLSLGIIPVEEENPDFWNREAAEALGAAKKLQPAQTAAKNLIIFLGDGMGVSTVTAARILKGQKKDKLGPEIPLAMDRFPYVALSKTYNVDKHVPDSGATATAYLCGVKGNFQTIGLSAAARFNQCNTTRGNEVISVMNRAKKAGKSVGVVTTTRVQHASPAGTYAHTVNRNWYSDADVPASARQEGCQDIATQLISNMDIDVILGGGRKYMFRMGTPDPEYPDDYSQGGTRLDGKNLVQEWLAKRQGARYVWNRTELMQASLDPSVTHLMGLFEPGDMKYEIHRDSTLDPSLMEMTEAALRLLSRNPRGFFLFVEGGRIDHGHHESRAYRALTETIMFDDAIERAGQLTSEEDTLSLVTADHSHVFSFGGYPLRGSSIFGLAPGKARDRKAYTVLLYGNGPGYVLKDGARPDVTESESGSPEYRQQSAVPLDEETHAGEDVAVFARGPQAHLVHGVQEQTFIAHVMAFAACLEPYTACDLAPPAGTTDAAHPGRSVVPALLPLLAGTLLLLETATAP
Sequence of E3 ubiquitin-protein ligase Mdm2/Protein Mdm4 (Q00987 whole entry): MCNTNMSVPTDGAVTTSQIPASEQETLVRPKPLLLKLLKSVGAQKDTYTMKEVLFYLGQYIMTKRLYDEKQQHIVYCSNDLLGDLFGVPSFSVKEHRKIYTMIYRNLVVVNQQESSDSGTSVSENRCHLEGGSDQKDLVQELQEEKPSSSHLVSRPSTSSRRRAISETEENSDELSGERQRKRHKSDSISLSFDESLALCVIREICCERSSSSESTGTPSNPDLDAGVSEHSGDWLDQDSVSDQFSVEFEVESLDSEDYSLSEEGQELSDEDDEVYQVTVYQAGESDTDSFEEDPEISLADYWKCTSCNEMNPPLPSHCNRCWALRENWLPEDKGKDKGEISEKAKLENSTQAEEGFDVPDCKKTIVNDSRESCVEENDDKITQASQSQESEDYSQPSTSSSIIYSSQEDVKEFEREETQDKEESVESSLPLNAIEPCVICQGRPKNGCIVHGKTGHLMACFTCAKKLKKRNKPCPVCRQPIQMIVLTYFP
Sequence of E3 ubiquitin-protein ligase Mdm2/Protein Mdm4 (O15151 whole entry): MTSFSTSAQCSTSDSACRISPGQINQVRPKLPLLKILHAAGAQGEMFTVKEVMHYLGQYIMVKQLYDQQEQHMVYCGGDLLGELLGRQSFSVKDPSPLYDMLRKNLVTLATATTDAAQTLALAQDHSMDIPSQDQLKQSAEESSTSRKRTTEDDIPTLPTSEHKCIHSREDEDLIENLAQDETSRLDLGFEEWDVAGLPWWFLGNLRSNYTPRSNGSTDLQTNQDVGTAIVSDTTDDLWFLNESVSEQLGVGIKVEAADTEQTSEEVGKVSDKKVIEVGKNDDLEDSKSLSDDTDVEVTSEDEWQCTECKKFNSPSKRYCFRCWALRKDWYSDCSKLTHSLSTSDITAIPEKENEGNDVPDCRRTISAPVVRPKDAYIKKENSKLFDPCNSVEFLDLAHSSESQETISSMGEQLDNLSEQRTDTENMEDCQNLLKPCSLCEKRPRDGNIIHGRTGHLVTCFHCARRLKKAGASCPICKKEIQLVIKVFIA
Sequence of Mu-type opioid receptor (P35372 whole entry): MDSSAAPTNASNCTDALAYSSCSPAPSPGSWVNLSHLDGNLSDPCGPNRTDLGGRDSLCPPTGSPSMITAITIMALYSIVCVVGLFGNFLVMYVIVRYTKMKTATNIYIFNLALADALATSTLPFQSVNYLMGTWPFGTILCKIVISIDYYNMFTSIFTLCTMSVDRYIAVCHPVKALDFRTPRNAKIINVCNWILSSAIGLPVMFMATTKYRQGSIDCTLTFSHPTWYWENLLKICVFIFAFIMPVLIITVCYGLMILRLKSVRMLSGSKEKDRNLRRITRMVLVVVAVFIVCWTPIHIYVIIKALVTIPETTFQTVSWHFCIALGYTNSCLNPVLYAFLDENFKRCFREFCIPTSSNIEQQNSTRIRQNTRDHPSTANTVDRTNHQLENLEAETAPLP
Sequence of Integrin alpha-4 (P13612 whole entry): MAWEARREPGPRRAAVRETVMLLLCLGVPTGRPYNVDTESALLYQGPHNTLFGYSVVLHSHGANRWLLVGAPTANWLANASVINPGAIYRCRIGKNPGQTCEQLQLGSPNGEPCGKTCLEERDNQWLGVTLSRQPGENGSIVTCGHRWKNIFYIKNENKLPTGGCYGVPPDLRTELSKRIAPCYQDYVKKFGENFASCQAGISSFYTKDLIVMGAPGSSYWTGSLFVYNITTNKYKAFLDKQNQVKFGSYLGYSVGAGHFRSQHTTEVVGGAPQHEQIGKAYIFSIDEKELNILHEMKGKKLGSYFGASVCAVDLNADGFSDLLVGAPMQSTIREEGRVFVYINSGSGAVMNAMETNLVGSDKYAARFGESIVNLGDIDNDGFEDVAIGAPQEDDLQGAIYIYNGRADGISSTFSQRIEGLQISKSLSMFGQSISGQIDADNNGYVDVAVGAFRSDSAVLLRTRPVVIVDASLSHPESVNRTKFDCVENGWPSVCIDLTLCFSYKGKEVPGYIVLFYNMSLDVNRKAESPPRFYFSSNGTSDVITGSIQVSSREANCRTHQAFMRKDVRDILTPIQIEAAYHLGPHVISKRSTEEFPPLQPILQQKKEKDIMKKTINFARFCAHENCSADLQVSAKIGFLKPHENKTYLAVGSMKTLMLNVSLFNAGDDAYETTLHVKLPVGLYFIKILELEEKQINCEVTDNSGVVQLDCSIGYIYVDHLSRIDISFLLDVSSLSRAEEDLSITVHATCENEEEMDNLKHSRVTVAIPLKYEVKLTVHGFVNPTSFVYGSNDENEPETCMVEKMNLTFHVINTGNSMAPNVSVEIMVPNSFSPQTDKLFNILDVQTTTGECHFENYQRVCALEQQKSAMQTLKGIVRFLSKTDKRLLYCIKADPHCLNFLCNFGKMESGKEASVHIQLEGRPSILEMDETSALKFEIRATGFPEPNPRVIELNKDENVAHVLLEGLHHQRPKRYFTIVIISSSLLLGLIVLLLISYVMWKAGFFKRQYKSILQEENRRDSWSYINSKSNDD
Sequence of Hexokinase (Q38C41 whole entry): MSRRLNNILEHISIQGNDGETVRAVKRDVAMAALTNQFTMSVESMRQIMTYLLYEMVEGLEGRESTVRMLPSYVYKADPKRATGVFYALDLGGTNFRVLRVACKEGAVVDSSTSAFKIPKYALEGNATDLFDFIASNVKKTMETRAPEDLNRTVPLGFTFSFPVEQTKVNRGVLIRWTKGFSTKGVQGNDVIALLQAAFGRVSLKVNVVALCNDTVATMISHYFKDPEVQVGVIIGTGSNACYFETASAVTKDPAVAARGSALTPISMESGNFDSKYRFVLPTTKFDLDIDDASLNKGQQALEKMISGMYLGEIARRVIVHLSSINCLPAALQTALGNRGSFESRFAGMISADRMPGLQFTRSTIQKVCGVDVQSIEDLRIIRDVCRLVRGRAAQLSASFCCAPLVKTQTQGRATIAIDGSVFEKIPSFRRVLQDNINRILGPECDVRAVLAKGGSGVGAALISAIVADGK
Sequence of Glyceraldehyde-3-phosphate dehydrogenase (P04406 whole entry): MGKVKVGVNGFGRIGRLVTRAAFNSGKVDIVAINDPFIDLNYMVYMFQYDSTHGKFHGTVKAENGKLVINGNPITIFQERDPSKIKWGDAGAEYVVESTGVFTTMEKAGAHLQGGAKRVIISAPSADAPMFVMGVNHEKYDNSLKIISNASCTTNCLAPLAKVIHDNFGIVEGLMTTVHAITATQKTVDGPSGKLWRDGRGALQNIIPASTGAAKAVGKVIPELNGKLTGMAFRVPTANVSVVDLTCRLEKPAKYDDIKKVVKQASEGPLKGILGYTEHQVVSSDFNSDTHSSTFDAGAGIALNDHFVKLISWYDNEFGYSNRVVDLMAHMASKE
Sequence of Delta-type opioid receptor (P41143 whole entry): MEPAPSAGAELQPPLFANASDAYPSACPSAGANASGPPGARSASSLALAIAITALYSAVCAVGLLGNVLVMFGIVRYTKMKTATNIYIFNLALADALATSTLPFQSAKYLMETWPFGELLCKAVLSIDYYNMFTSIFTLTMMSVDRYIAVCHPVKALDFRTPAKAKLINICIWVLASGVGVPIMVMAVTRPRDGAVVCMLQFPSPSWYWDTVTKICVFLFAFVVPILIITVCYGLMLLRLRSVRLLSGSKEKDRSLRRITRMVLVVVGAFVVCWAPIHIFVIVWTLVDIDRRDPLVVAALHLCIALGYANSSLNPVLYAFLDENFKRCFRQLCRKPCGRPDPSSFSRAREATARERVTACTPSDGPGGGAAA
Sequence of Phospholipase A2 (P04054 whole entry): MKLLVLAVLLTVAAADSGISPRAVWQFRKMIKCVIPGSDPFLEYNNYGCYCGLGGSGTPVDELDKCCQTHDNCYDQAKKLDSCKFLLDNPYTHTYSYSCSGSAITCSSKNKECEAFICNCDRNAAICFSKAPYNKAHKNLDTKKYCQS

Cc1cc(-c2ccc(C)c(S(=O)(=O)N3CCN(c4ccccn4)CC3)c2)on1
EC50 [1]: 4.22 µM (active)

O=C(Cn1c(=O)c2cccn2c2cccnc21)NCCCN1CCN(c2ccccc2)CC1
IC50 [2]: 1.17 µM (active) | IC50 (Mu-type opioid receptor): > 32 µM (inactive) | IC50 [3]: 12.7 µM (inactive) | IC50 [4]: > 32 µM (inactive) | IC50 [5]: > 20 µM (inactive) | IC50 [6]: > 32 µM (inactive)

CC1(C)C(=O)Nc2ccccc2N1C(=O)Cn1ncc(Cl)c(Cl)c1=O
EC50 [7]: > 60 µM (not active) | IC50 [8]: 5.11 µM (active) | EC50 [9]: > 120 µM (not active) | EC50 (H4): > 120 µM (not active)

NNC(=O)c1cc(-c2ccc(Cl)cc2Cl)n[nH]1
IC50 [10]: > 100 µM (not active) | IC50 [11]: 0.0684 µM (active) | IC50 [12]: > 100 µM (inactive)

CCCCCC(=O)Nc1cc(Cl)ccc1C(=O)O
IC50 (Hexokinase): > 25 µM (inactive)

c1ccc2c(-c3ccc(OCCN4CCCC4)cc3)c(-c3ccsc3)sc2c1
EC50 (Integrin alpha-4): > 49.4 µM (inactive)

N=C(N)c1ccc(/N=N/c2c(O)ccc3c2[nH]c2ccccc23)cc1
IC50 (Phospholipase A2): 9.6 µM (active) | AC50 [13]: 1.31 µM (active) | CC50 [14]: 12.5 µM (active) | IC50 (Troponin, cardiac muscle): 8.6 µM (active) | IC50 (Nonstructural protein 1): 6.65 µM (active) | IC50 [15]: 2.48 µM (active) | CC50 [16]: 67.4 µM (active) | IC50 (Cysteine protease ATG4B): 5.61 µM (active) | AC50 [17]: 2.15 µM (active) | IC50 [18]: 12.7 µM (active)

From ChEMBL document CHEMBL1201862, “PubChem BioAssay data set” (2004)
